{"source": "patent US20120196811A1", "about": "(priority 2009, published 2012)", "tested_on": "broiler chickens with combined chronic mycotoxicosis (aflatoxin B1, ochratoxin A, T-2-mycotoxin, fumonisin B1 in feed)", "set-up": "species or system broiler chickens of the Cobb-Avian-48 cross", "details": "in vivo", "data": [{"molecule": "OC[C@H]1O[C@@H](O[C@@H]2[C@@H](CO)OC(O)(CO)[C@H]2O)[C@H](O)[C@@H](O)[C@H]1O", "note": "(mixture of isomers) [lactulose]", "values": [{"measurement": "recovery of average daily weight gain per kilogram of component in the compound feed", "value": 25, "unit": "%"}]}]}
